In patent US8269017B2, “Compounds for the treatment of proliferative disorders” (Synta Pharmaceuticals Corporation, priority 2005, dated 2012):
Structures can show the parent of a compound that is named as a salt. Where two headings read alike, the source gives them in different places.

Tests used:
MES-SA (uterine sarcoma) = test: In vitro cytotoxicity, MTS assay, MES-SA; format: cell-based, human; conditions: MES-SA (Uterine Carcinoma)
Protocol: (§1) The in vitro cytotoxicity of the compounds of the invention was determined in the following human cell lines: HL-60 (T-cell leukemia), MDA-435 and MCF-7 (human breast carcinoma), NCI-H460 and H29 (colon carcinoma), DU145 (prostate carcinoma), and MES-SA and MES-SA/DX5 (uterine sarcoma). MES-SA is a model of uterine sarcoma, and the cell are sensitive to a number of chemotherapeutic agents including doxorubicin, dactinomycin, mitomycin C, taxol and bleomycin, but resistant to vinblastine and cisplatin. MES-SA/Dx5 was established in the presence of increasing concentrations of doxorubicin. […] All cells were purchased from ATCC.
(§2) The cell lines were maintained in RPMI1640 (GIBCO) supplemented with 10% FCS, 100 units/mL penicillin, 100 ug/ml streptomycin, and 2 mM L-glutamine. Cells were split every third day and diluted to a concentration of 2×10^5 cells/mL one day before the experiment was performed. All experiments were performed on exponentially growing cell cultures. Cell densities were 2.5×10^4 cells/mL in all experiments.
(§3) Compounds of the invention were prepared by dissolving the compound at a concentration of 10 mM in 100% DMSO. Final concentrations 10, 1, 0.1, 0.01 and 0.001 μM were obtained by diluting the stock solution directly into the tissue culture medium.

[1] = tested on: MES-SA/DX5 (uterine sarcoma, MDR-1); test: cells; format: cell-based; conditions: MES/DX5 (MDR-1), MTS assay
Protocol: as §1, §2, §3

HL-60 (T-cell leukemia) = test: In vitro cytotoxicity, MTS assay, HL-60; format: cell-based, human
Protocol: as §1, §2, §3

MDA-435 = test: Cytotoxicity in MDA-435 tumor cells (Cell Counting Kit 8); format: cell-based; conditions: Homo sapiens, MDA435, MDA-435 cells, 70 h
Protocol: Tumor cell line, MDA-435, was seeded in 96-well plates at 1×10^4 cells/well in DMEM medium and treated with compounds at different concentrations. Taxol was used as a positive control. The cells were incubated at 37° C. for 70 h. Viability of the cells was measured with Cell Counting Kit 8 (Dojindo, Cat #CK04). IC50 of the compounds was determined by Five-Parameter Logistic equation.

SB cells = test: Induction of apoptosis in SB cells (Annexin V/PI, FACS); format: cell-based; conditions: 24 h; for % Apoptotic Cells Gated: 1 μM; for cytotoxicity at 1 µM: read-out: % Dead Cells Gated; for viability at 1 µM: read-out: % Live Cells Gated
Protocol: SB cells (2×10^5 cells/mL) were cultured in 12-well plates (2 mL/well) and were left untreated (negative control), treated with Taxol (positive control), or treated with a compound of the invention for 24 h at 37° C. After treatment, the cells were washed one time with 1×PBS and stained with FITC labeled anti-Annexin V and PI (10 μg/ml) for 15 min at room temperature. The cells were analyzed by FACSCalibur (Becton Dickinson).

[2] = tested on: microtubules of CV-1 cells; test: Microtubule disruption in CV-1 cells resistant to colchicine and vincristine; format: cell-based, Africa green monkey; conditions: 500 nM
Description: The effects of compounds of the invention on microtubules were studied in CV-1 cells. The microtubules of CV-1 cells are known to be resistant to the depolymerizing effects of colchicine and vincristine. […] Cells were then fixed and stained to examine microtubule structure.

MDA-435 cells = test: Cell cycle analysis in MDA-435 cells; format: cell-based, human; conditions: 20 h, Taxol 30 nM, Comp. 1 100 nM, Comp. 2 500 nM, Comp. 3 10 nM, Comp. 6 800 mM (so in the source), Comp. 46 50 nM
Protocol: MDA-435 cells were cultured in 6-well plates at 1×10^6 cells/well and were untreated (negative control), treated with Taxol (positive control), or treated with a compound of the invention at 37° C. for 20 h. The cells were detached with 1× trypsin and washed one time with PBS. Cycle TEST PLUS kit (BD PharMingen, Cat #340242) was used to stain the cells. Cell cycle was analyzed with FACScomp program (BS PharMingen).

[3] = Homo sapiens, 72 hours, read-out: IC50
[4] = Homo sapiens, HL-60, HL60 (Leukemia), 72 hours, read-out: IC50
[5] = Homo sapiens, HL-60, 72 h, HL60 (Leukemia)

SMILES | IC50 (MDA-435) [nM] | % Apoptotic Cells Gated (SB cells) [%] | cytotoxicity at 1 µM (SB cells) [%] | viability at 1 µM (SB cells) [%] | IC50 ([1]; Homo sapiens, MDR1, 72 h) [nM] | also measured
COc1ccc(-c2cnoc2-c2cc(OC)c(OC)c(OC)c2)cc1NC(=O)C(C)N (stereo not drawn) [Compound 171, 2-amino-N-(2-methoxy-5-[5-(3,4,5-trimethoxy-phenyl)-isoxazol-4-yl)-phenyl)propanamide] |  |  |  |  |  | IC50 (MES-SA (uterine sarcoma); 72 hours): 2 nM; IC50 ([1]; 72 hours): 4 nM; IC50 (HL-60 (T-cell leukemia); HL60 (Leukemia), 72 hours): 5 nM
CCc1ccc(-c2cnoc2-c2cc(OC)c(OC)c(OC)c2)cc1 [Compound 47, 4-(4-Ethyl-phenyl)-5-(3,4,5-trimethoxy-phenyl)-isoxazole] | 47 | 13.83 | 14.8 | 61.9 |  | 
COc1ccc(-c2oncc2-c2ccc3c(c2)OCCO3)cc1OC [Compound 161, 4-(2,3-Dihydro-benzo[1,4]dioxin-6-yl)-5-(3,4-dimethoxy-phenyl)isoxazole] | 591 | 14.61 | 10.5 | 66.8 |  | 
COc1cc2c(c(OC)c1OC)-c1ccc(OC)c(=O)cc1[C@@H](NC(C)=O)CC2 [colchicine] |  |  |  |  |  | microtubule structure ([2]; 24 hr): disorganized but clear microtubule structures were found; microtubule structure ([2]; 48 hr): microtubule structures were still found
COc1cc(-c2cnoc2-c2ccc(Br)cc2)cc(OC)c1OC [Compound 168, 4-(3,4,5-Trimethoxy-phenyl)-5-(4-bromo-phenyl)-isoxazole] | > 1000 | 15.49 | 14.4 | 60.4 |  | 
CCc1cc(-c2oncc2-c2ccc(C)c(C)c2)c(O)cc1OC [Compound 162, 4-(3,4-Dimethy-phenyl)-5-(2-hydroxy-4-methoxy-5-ethyl-phenyl)-isoxazole] | 842 | 17.74 | 11.5 | 64.6 |  | 
CC[C@]1(O)C[C@H]2CN(CCc3c([nH]c4ccccc34)[C@@](C(=O)OC)(c3cc4c(cc3OC)N(C=O)[C@H]3[C@@](O)(C(=O)OC)[C@H](OC(C)=O)[C@]5(CC)C=CCN6CC[C@]43[C@@H]65)C2)C1 [vincristine, Vincristine] |  |  |  |  |  | microtubule structure ([2]; 24 hr): disorganized but clear microtubule structures were found; microtubule structure ([2]; 48 hr): microtubule structures were still found
COc1ccc(-c2cnoc2-c2cc(OC)c(OC)c(OC)c2)cc1NC(=O)C(N)CC(C)C (stereo not drawn) [Compound 175, 2-amino-N-(2-methoxy-5-(5-(3,4,5-trimethoxyphenyl)isoxazol-4-yl)phenyl)-4-methylpentanamide Hydrochloride] |  |  |  |  | 0.1 | IC50 (MES-SA (uterine sarcoma); [3]): 0.1 nM; IC50 (HL-60 (T-cell leukemia); [4]): 5 nM
COC(=O)CNCC(=O)Nc1cc(-c2cnoc2-c2cc(OC)c(OC)c(OC)c2)ccc1OC [Compound 241, methyl 2-(2-(2-methoxy-5-(5-(3,4,5-trimethoxyphenyl)isoxazol-4-yl)phenylamino)-2-oxoethylamino)acetate] |  |  |  |  | 63 | IC50 (MES-SA (uterine sarcoma); [3]): 136 nM; IC50 (HL-60 (T-cell leukemia); [4]): 600 nM
COc1ccc(-c2cnoc2-c2cc(OC)c(OC)c(OC)c2)cc1NC(=O)C(N)CO (stereo not drawn) [Compound 170, 2-amino-3-hydroxy-N-(2-methoxy-5-[5-(3,4,5-trimethoxy-phenyl)-isoxazol-4-yl)-phenyl)propanamide hydrochloride] |  |  |  |  | 3 | IC50 (MES-SA (uterine sarcoma); [3]): 9 nM; IC50 (HL-60 (T-cell leukemia); [4]): 2 nM
COc1ccc(-c2cnoc2-c2cc(OC)c(OC)c(OC)c2)cc1NC(=O)C(C)N (stereo not drawn) [Compound 204, 2-amino-N-(2-methoxy-5-(5-(3,4,5-trimethoxyphenyl)isoxazol-4-yl)phenyl)propanamide Hydrochloride] |  |  |  |  |  | IC50 (MES-SA (uterine sarcoma); 72 hours, Hydrochloride): 106 nM; IC50 ([1]; 72 hours, Hydrochloride): 120 nM; IC50 (HL-60 (T-cell leukemia); HL60 (Leukemia), 72 hours, Hydrochloride): 500 nM
COc1ccc(CC(N)C(=O)Nc2cc(-c3cnoc3-c3cc(OC)c(OC)c(OC)c3)ccc2OC)cc1 (stereo not drawn) [Compound 176, 2-amino-N-(2-methoxy-5-(5-(3,4,5-trimethoxyphenyl)isoxazol-4-yl)phenyl)-3-(4-methoxyphenyl)propanamide] |  |  |  |  | 0.1 | IC50 (MES-SA (uterine sarcoma); Homo sapiens, MES-SA, 72 h): 0.1 nM; IC50 (HL-60 (T-cell leukemia); [5]): 64 nM
COc1cc(-c2oncc2-c2ccc(C(C)C)cc2)cc(OC)c1OC [Compound 45, 4-(4-Isopropyl-phenyl)-5-(3,4,5-trimethoxy-phenyl)-isoxazole] | 219 | 17.74 | 15.4 | 62 |  | 
CCc1cc(-c2oncc2-c2ccc(OC)cc2)c(O)cc1OC [Compound 44, 4-(4-Methoxy-phenyl)-5-(2-hydroxy-4-methoxy-5-ethyl-phenyl)-isoxazole] | 200 | 16.05 | 12.3 | 64.8 |  | 
CCc1cc(-c2oncc2-c2ccc3ccccc3c2)c(O)cc1OC [Compound 2, 4-(Naphthalen-2-yl)-5-(2-hydroxy-4-methoxy-5-ethyl-phenyl)-isoxazole] | 79 | 22.73 | 22.7 | 45.7 |  | Apoptotic Population (%) (MDA-435 cells): 11.17%; G0/G1 Phase (%) (MDA-435 cells): 21.25%; G2/M Phase (%) (MDA-435 cells): 30.53%; S Phase (%) (MDA-435 cells): 37.67%
COc1ccc(-c2cnoc2-c2cc(OC)c(OC)c(OC)c2)cc1NC(=O)C(N)CCSC (stereo not drawn) [Compound 172, 2-amino-N-(2-methoxy-5-(5-(3,4,5-trimethoxyphenyl)isoxazol-4-yl)phenyl)-4-(methylthio)butanamide Hydrochloride] |  |  |  |  | 0.1 | IC50 (MES-SA (uterine sarcoma); [3]): 0.1 nM; IC50 (HL-60 (T-cell leukemia); [4]): 5 nM
COc1ccc(-c2cnoc2-c2cc(OC)c(OC)c(OC)c2)cc1NC(=O)CCN [Compound 243, 3-amino-N-(2-methoxy-5-(5-(3,4,5-trimethoxyphenyl)isoxazol-4-yl)phenyl)propanamide Hydrochloride] |  |  |  |  | 38 | IC50 (MES-SA (uterine sarcoma); Homo sapiens, MES-SA, 72 h): 50 nM; IC50 (HL-60 (T-cell leukemia); [5]): 63 nM
COc1ccc(-c2cnoc2-c2cc(OC)c(OC)c(OC)c2)cc1OP(=O)(O)O [Compound 177, 2-methoxy-5-[5-(3,4,5-trimethoxy-phenyl)-isoxazol-4-yl)-phenyl dihydrogen phosphate] |  |  |  |  | 4 | IC50 (MES-SA (uterine sarcoma); Homo sapiens, MES-SA, 72 h): 8 nM; IC50 (HL-60 (T-cell leukemia); HL60 (Leukemia), 72 hours): 52 nM
CCC(N)C(=O)Nc1cc(-c2cnoc2-c2cc(OC)c(OC)c(OC)c2)ccc1OC (stereo not drawn) [Compound 173, 2-amino-N-(2-methoxy-5-(5-(3,4,5-trimethoxyphenyl)isoxazol-4-yl)phenyl)butanamide Hydrochloride] |  |  |  |  | 0.1 | IC50 (MES-SA (uterine sarcoma); [3]): 0.1 nM; IC50 (HL-60 (T-cell leukemia); [4]): 2 nM
